Source: patent US10626144B2, “Peptide derivatives and uses thereof” (Nosopharm, priority 2014, dated 2020)
Like-named read-outs stand apart in the source and are kept apart here. Square brackets hold non-standard residues; d marks the D form. Peptide text beside a SMILES is read from it. * marks the point of attachment. Phe(4-tBu) = CC(C)(C)c1ccc(C[C@H](N)C(=O)O)cc1; Phe(3-Cl) = N[C@@H](Cc1cccc(Cl)c1)C(=O)O; Phe(4-Cl) = N[C@@H](Cc1ccc(Cl)cc1)C(=O)O; Phe(4-I) = N[C@@H](Cc1ccc(I)cc1)C(=O)O; Dab(3S-OH) = NC[C@H](O)[C@H](N)C(=O)O; His(τ-Me) = Cn1cnc(C[C@H](N)C(=O)O)c1; ΔZArg = N=C(N)NCC/C=C(\N)C(=O)O; aThr = C[C@H](O)[C@H](N)C(=O)O; dOrn = NCCC[C@@H](N)C(=O)O; Pra = C#CC[C@H](N)C(=O)O; Abu = CC[C@H](N)C(=O)O; NH(CH2)4NH2 = NCCCCN*

Key:
[1] = tested on: Escherichia coli ATCC 25922; assay: MIC, broth microdilution (CLSI), reference strain; conditions: CAMHB
[2] = tested on: Pseudomonas aeruginosa ATCC 27853; assay: MIC, broth microdilution (CLSI), reference strain; conditions: CAMHB
[3] = tested on: Staphylococcus aureus ATCC 13709; assay: MIC, broth microdilution (CLSI), reference strain; conditions: CAMHB
[4] = target: N-type calcium channels (Cav2.2) (Rattus norvegicus (Rat), UniProt Q02294); assay: biochemical; format: binding
[5] = tested on: Acinetobacter baumannii ATCC 19606; assay: MIC, broth microdilution (CLSI), reference strain; conditions: CAMHB
[6] = class symbol, rat cerebral cortex, [125I]ω-conotoxin GVIA 0.001 nM, 30 minutes at room temperature, read-out: IC50 Cav2.2
[7] = value in brackets, rat cerebral cortex, [125I]ω-conotoxin GVIA 0.001 nM, read-out: IC50 Cav2.2

| Compound | Ec: MIC Escherichia coli ATCC 25922 [1] | Pa: MIC Pseudomonas aeruginosa ATCC 27853 [2] | Sa: MIC Staphylococcus aureus ATCC 13709 [3] | IC50 [4, 6] | Ab: MIC Acinetobacter baumannii ATCC 19606 [5] | IC50 [4] | IC50 [4, 7] |
| --- | --- | --- | --- | --- | --- | --- | --- |
| C[C@H](NC(=O)[C@@H](NC(=O)[C@@H](N)CCCCN)[C@@H](O)CN)C(=O)NCC(=O)N[C@H](CCCN)C(=O)N1CCC[C@H]1C(=O)N[C@@H](CC(N)=O)C(=O)N[C@@H](CCCCN)C(=O)N/C(=C\CCNC(=N)N)C(=O)N[C@@H](CCCCN)C(=O)NCCCCN [24.22] (H-K[Dab(3S-OH)]AG[dOrn]PNK[ΔZArg]K-{NH(CH2)4NH2}) | ++ (≤8 μg/mL) | − (>32 μg/mL) | ++ (≤8 μg/mL) | < 30 nM | − (>32 μg/mL) | – | – |
| C#CC[C@H](NC(=O)[C@@H]1CCCN1C(=O)[C@@H](CCCN)NC(=O)CNC(=O)[C@H](C)NC(=O)[C@@H](NC(=O)[C@@H](N)CCCCN)[C@@H](O)CN)C(=O)N[C@@H](CCCCN)C(=O)N/C(=C\CCNC(=N)N)C(=O)N[C@@H](CCCCN)C(=O)NCCCCN [24.67] (H-K[Dab(3S-OH)]AG[dOrn]P[Pra]K[ΔZArg]K-{NH(CH2)4NH2}) | ++ (≤8 μg/mL) | + (≤32 μg/mL) | − (>32 μg/mL) | < 30 nM | − (>32 μg/mL) | – | – |
| C[C@H](NC(=O)[C@@H](NC(=O)[C@@H](N)CCCCN)[C@@H](O)CN)C(=O)NCC(=O)N[C@H](CCCN)C(=O)N1CCC[C@H]1C(=O)N[C@@H](Cc1cn(C)cn1)C(=O)N[C@@H](CCCCN)C(=O)N/C(=C\CCNC(=N)N)C(=O)O [24.76] (H-K[Dab(3S-OH)]AG[dOrn]P[His(τ-Me)]K[ΔZArg]-OH) | − (>32 μg/mL) | − (>32 μg/mL) | + (≤32 μg/mL) | > 300 nM | − (>32 μg/mL) | – | – |
| C[C@H](NC(=O)[C@@H](NC(=O)[C@@H](N)CCCCN)[C@@H](O)CN)C(=O)NCC(=O)N[C@H](CCCN)C(=O)N1CCC[C@H]1C(=O)N[C@@H](Cc1cccc(Cl)c1)C(=O)N[C@@H](CCCCN)C(=O)N/C(=C\CCNC(=N)N)C(=O)O [24.88] (H-K[Dab(3S-OH)]AG[dOrn]P[Phe(3-Cl)]K[ΔZArg]-OH) | ++ (≤8 μg/mL) | − (>32 μg/mL) | ++ (≤8 μg/mL) | > 300 nM | − (>32 μg/mL) | – | – |
| C[C@H](NC(=O)[C@@H](NC(=O)[C@@H](N)CCCCN)[C@@H](O)CN)C(=O)NCC(=O)N[C@H](CCCN)C(=O)N1CCC[C@H]1C(=O)N[C@@H](Cc1ccc(C(C)(C)C)cc1)C(=O)N[C@@H](CCCCN)C(=O)N/C(=C\CCNC(=N)N)C(=O)O [24.93] (H-K[Dab(3S-OH)]AG[dOrn]P[Phe(4-tBu)]K[ΔZArg]-OH) | ++ (≤8 μg/mL) | − (>32 μg/mL) | ++ (≤8 μg/mL) | > 300 nM | − (>32 μg/mL) | – | – |
| C[C@H](NC(=O)[C@@H](NC(=O)[C@@H](N)CCCCN)[C@@H](O)CN)C(=O)NCC(=O)N[C@H](CCCN)C(=O)N1CCC[C@H]1C(=O)N[C@@H](Cc1ccc(Cl)cc1)C(=O)N[C@@H](CCCCN)C(=O)N/C(=C\CCNC(=N)N)C(=O)O [24.97] (H-K[Dab(3S-OH)]AG[dOrn]P[Phe(4-Cl)]K[ΔZArg]-OH) | ++ (≤8 μg/mL) | − (>32 μg/mL) | ++ (≤8 μg/mL) | > 300 nM | − (>32 μg/mL) | – | – |
| C[C@H](NC(=O)[C@@H](NC(=O)[C@@H](N)CCCCN)[C@@H](O)CN)C(=O)NCC(=O)N[C@H](CCCN)C(=O)N1CCC[C@H]1C(=O)N[C@@H](Cc1ccc(I)cc1)C(=O)N[C@@H](CCCCN)C(=O)N/C(=C\CCNC(=N)N)C(=O)O [24.103] (H-K[Dab(3S-OH)]AG[dOrn]P[Phe(4-I)]K[ΔZArg]-OH) | ++ (≤8 μg/mL) | − (>32 μg/mL) | ++ (≤8 μg/mL) | > 300 nM | − (>32 μg/mL) | – | – |
| C[C@H](NC(=O)[C@@H](NC(=O)[C@@H](N)CCCCN)[C@@H](O)CN)C(=O)NCC(=O)N[C@H](CCCN)C(=O)N1CCC[C@H]1C(=O)N[C@@H](CC(N)=O)C(=O)N[C@@H](CCCCN)C(=O)N/C(=C\CCNC(=N)N)C(=O)O [24.112] (H-K[Dab(3S-OH)]AG[dOrn]PNK[ΔZArg]-OH) | − (>32 μg/mL) | − (>32 μg/mL) | + (≤32 μg/mL) | – | − (>32 μg/mL) | > 300 nM | 790 nM |
| C#CC[C@H](NC(=O)[C@@H]1CCCN1C(=O)[C@@H](CCCN)NC(=O)CNC(=O)[C@H](C)NC(=O)[C@@H](NC(=O)[C@@H](N)CCCCN)[C@@H](O)CN)C(=O)N[C@@H](CCCCN)C(=O)N/C(=C\CCNC(=N)N)C(=O)O [24.135] (H-K[Dab(3S-OH)]AG[dOrn]P[Pra]K[ΔZArg]-OH) | + (≤32 μg/mL) | − (>32 μg/mL) | + (≤32 μg/mL) | > 300 nM | − (>32 μg/mL) | – | – |
| C[C@H](NC(=O)[C@@H](NC(=O)[C@@H](N)CCCCN)[C@@H](O)CN)C(=O)NCC(=O)N[C@H](CCCN)C(=O)N1CCC[C@H]1C(=O)N[C@@H](Cc1ccc(O)cc1)C(=O)N[C@@H](CCCCN)C(=O)N/C(=C\CCNC(=N)N)C(=O)O [24.138] (H-K[Dab(3S-OH)]AG[dOrn]PYK[ΔZArg]-OH) | + (≤32 μg/mL) | − (>32 μg/mL) | + (≤32 μg/mL) | > 300 nM | − (>32 μg/mL) | – | – |
| C[C@H](O)[C@H](NC(=O)[C@@H](NC(=O)[C@@H](N)CCCCN)[C@@H](O)CN)C(=O)NCC(=O)N[C@H](CCCN)C(=O)N1CCC[C@H]1C(=O)N[C@@H](Cc1cnc[nH]1)C(=O)N[C@@H](CCCCN)C(=O)N/C(=C\CCNC(=N)N)C(=O)N[C@@H](CCCCN)C(=O)NCCCCN [25.1] (H-K[Dab(3S-OH)][aThr]G[dOrn]PHK[ΔZArg]K-{NH(CH2)4NH2}) | ++ (≤8 μg/mL) | + (≤32 μg/mL) | ++ (≤8 μg/mL) | – | − (>32 μg/mL) | < 30 nM | 3 nM |
| C[C@H](O)[C@H](NC(=O)[C@@H](NC(=O)[C@@H](N)CCCCN)[C@@H](O)CN)C(=O)NCC(=O)N[C@H](CCCN)C(=O)N1CCC[C@H]1C(=O)N[C@@H](Cc1cnc[nH]1)C(=O)N[C@@H](CCCCN)C(=O)N/C(=C\CCNC(=N)N)C(=O)O [25.2] (H-K[Dab(3S-OH)][aThr]G[dOrn]PHK[ΔZArg]-OH) | − (>32 μg/mL) | − (>32 μg/mL) | − (>32 μg/mL) | > 300 nM | − (>32 μg/mL) | – | – |
| CC[C@H](C)[C@H](NC(=O)[C@@H](NC(=O)[C@@H](N)CCCCN)[C@@H](O)CN)C(=O)NCC(=O)N[C@H](CCCN)C(=O)N1CCC[C@H]1C(=O)N[C@@H](Cc1cnc[nH]1)C(=O)N[C@@H](CCCCN)C(=O)N/C(=C\CCNC(=N)N)C(=O)N[C@@H](CCCCN)C(=O)NCCCCN [27.1] (H-K[Dab(3S-OH)]IG[dOrn]PHK[ΔZArg]K-{NH(CH2)4NH2}) | ++ (≤8 μg/mL) | − (>32 μg/mL) | ++ (≤8 μg/mL) | < 30 nM | − (>32 μg/mL) | – | – |
| CC[C@H](C)[C@H](NC(=O)[C@@H](NC(=O)[C@@H](N)CCCCN)[C@@H](O)CN)C(=O)NCC(=O)N[C@H](CCCN)C(=O)N1CCC[C@H]1C(=O)N[C@@H](Cc1cnc[nH]1)C(=O)N[C@@H](CCCCN)C(=O)N/C(=C\CCNC(=N)N)C(=O)O [27.2] (H-K[Dab(3S-OH)]IG[dOrn]PHK[ΔZArg]-OH) | − (>32 μg/mL) | − (>32 μg/mL) | + (≤32 μg/mL) | > 300 nM | − (>32 μg/mL) | – | – |
| CC[C@H](NC(=O)[C@@H](NC(=O)[C@@H](N)CCCCN)[C@@H](O)CN)C(=O)NCC(=O)N[C@H](CCCN)C(=O)N1CCC[C@H]1C(=O)N[C@@H](Cc1cnc[nH]1)C(=O)N[C@@H](CCCCN)C(=O)N/C(=C\CCNC(=N)N)C(=O)N[C@@H](CCCCN)C(=O)NCCCCN [28.1] (H-K[Dab(3S-OH)][Abu]G[dOrn]PHK[ΔZArg]K-{NH(CH2)4NH2}) | ++ (≤8 μg/mL) | − (>32 μg/mL) | ++ (≤8 μg/mL) | < 30 nM | − (>32 μg/mL) | – | – |
| CC[C@H](NC(=O)[C@@H](NC(=O)[C@@H](N)CCCCN)[C@@H](O)CN)C(=O)NCC(=O)N[C@H](CCCN)C(=O)N1CCC[C@H]1C(=O)N[C@@H](Cc1cnc[nH]1)C(=O)N[C@@H](CCCCN)C(=O)N/C(=C\CCNC(=N)N)C(=O)O [28.2] (H-K[Dab(3S-OH)][Abu]G[dOrn]PHK[ΔZArg]-OH) | − (>32 μg/mL) | − (>32 μg/mL) | + (≤32 μg/mL) | > 300 nM | − (>32 μg/mL) | – | – |
